Measured values reported in patent US10961200B2, “Small molecule inhibitors of lactate dehydrogenase and methods of use thereof” (THE UNITED STATES OF AMERICA, AS REPRESENTED BY THE …, priority 2014, dated 2021).

Target: Human LDHA (Homo sapiens (Human), UniProt P00338)
Assay: human LDHA primary biochemical assay (resazurin/diaphorase coupled, fluorescence)
Conditions: LDHA inhibitory activity, activity level based on IC50 (Table 7)
From the text: Test compounds were placed in a Greiner Bio-One (Monroe, N.C.) 1536-well black solid bottom assay plate. 200 millimolar (mM) Tris HCl, pH 7.4, 100 micromolar […] EDTA and 0.01% TWEEN-20™, final concentration, was used as the assay buffer. The LDHA reagent was 2 nanomolar (nM) Human LDHA (Meridian Life Science, Inc., Memphis, Tenn.), final concentration, in assay buffer.

| Structure (SMILES) | IC50 [nM] |
| --- | --- |
| CCOC(=O)c1csc(-n2nc(-c3cccc(-c4ccc(C)cc4)c3)c(Cc3ccc(S(N)(=O)=O)cc3F)c2CC2CC2)n1 [Compound 344] | > 57000 |
| CCOC(=O)c1csc(-n2nc(-c3ccc(F)c(-c4ccc(F)cc4)c3)c(Cc3ccc(S(N)(=O)=O)cc3F)c2CC2CC2)n1 [Compound 345] | 1000 to 57000 |
| Cc1ccc(-c2cccc(-c3c(Cc4ccc([S+](N)(=O)[O-])c(F)c4)c(C4CC4)nn3-c3nc(C(=O)O)cs3)c2)cc1 [Compound 346] | 1000 to 57000 |
| Cc1ccc(-c2cccc(-c3nn(-c4nc(C(=O)O)cs4)c(C4CC4)c3Cc3ccc(S(N)(=O)=O)c(F)c3)c2)cc1 [Compound 347] | < 100 |
| N[S+](=O)([O-])c1ccc(Cc2c(C3CC3)nn(-c3nc(C(=O)O)cs3)c2-c2cccc(-c3ccc(F)cc3)c2)cc1F [Compound 348] | 1000 to 57000 |
| NS(=O)(=O)c1ccc(Cc2c(-c3cccc(-c4ccc(F)cc4)c3)nn(-c3nc(C(=O)O)cs3)c2C2CC2)cc1F [Compound 349] | < 100 |
| N[S+](=O)([O-])c1ccc(Cc2c(C3CC3)nn(-c3nc(C(=O)O)cs3)c2-c2cccc(-c3cccc(F)c3)c2)cc1F [Compound 350] | 1000 to 57000 |
| NS(=O)(=O)c1ccc(Cc2c(-c3cccc(-c4cccc(F)c4)c3)nn(-c3nc(C(=O)O)cs3)c2C2CC2)cc1F [Compound 351] | < 100 |
| COc1cccc(-c2cccc(-c3c(Cc4ccc([S+](N)(=O)[O-])c(F)c4)c(C4CC4)nn3-c3nc(C(=O)O)cs3)c2)c1 [Compound 352] | 1000 to 57000 |
| COc1cccc(-c2cccc(-c3nn(-c4nc(C(=O)O)cs4)c(C4CC4)c3Cc3ccc(S(N)(=O)=O)c(F)c3)c2)c1 [Compound 353] | < 100 |
| Cc1ccc(-c2cccc(-c3c(Cc4ccc(S(N)(=O)=O)cc4F)c(C4CC4)nn3-c3nc(C(=O)O)cs3)c2)cc1 [Compound 354] | 1000 to 57000 |
| Cc1ccc(-c2cccc(-c3nn(-c4nc(C(=O)O)cs4)c(C4CC4)c3Cc3ccc(S(N)(=O)=O)cc3F)c2)cc1 [Compound 355] | < 100 |
| NS(=O)(=O)c1ccc(Cc2c(C3CC3)nn(-c3nc(C(=O)O)cs3)c2-c2cccc(-c3ccc(F)cc3)c2)c(F)c1 [Compound 356] | 1000 to 57000 |
| NS(=O)(=O)c1ccc(Cc2c(-c3cccc(-c4ccc(F)cc4)c3)nn(-c3nc(C(=O)O)cs3)c2C2CC2)c(F)c1 [Compound 357] | < 100 |
| NS(=O)(=O)c1ccc(Cc2c(C3CC3)nn(-c3nc(C(=O)O)cs3)c2-c2cccc(-c3cccc(F)c3)c2)c(F)c1 [Compound 358] | 1000 to 57000 |
| NS(=O)(=O)c1ccc(Cc2c(-c3cccc(-c4cccc(F)c4)c3)nn(-c3nc(C(=O)O)cs3)c2C2CC2)c(F)c1 [Compound 359] | < 100 |
| COc1cccc(-c2cccc(-c3c(Cc4ccc(S(N)(=O)=O)cc4F)c(C4CC4)nn3-c3nc(C(=O)O)cs3)c2)c1 [Compound 360] | 1000 to 57000 |
| COc1cccc(-c2cccc(-c3nn(-c4nc(C(=O)O)cs4)c(C4CC4)c3Cc3ccc(S(N)(=O)=O)cc3F)c2)c1 [Compound 361] | < 100 |
| Cc1ccc(-c2cc(-c3nn(-c4nc(C(=O)O)cs4)c(CC4CC4)c3Cc3ccc(S(N)(=O)=O)c(F)c3)ccc2F)cc1 [Compound 362] | < 100 |
| Cc1ccc(-c2cccc(-c3nn(-c4nc(C(=O)O)cs4)c(CC4CC4)c3Cc3ccc(S(N)(=O)=O)cc3F)c2)cc1 [Compound 363] | < 100 |
| N[S+](=O)([O-])c1ccc(Cc2c(-c3ccc(F)c(-c4ccc(F)cc4)c3)nn(-c3nc(C(=O)O)cs3)c2CC2CC2)c(F)c1 [Compound 364] | < 100 |
| NS(=O)(=O)c1ccc(Cc2c(-c3cccc(N4CCC(C(F)(F)F)CC4)c3)nn(-c3nc(C(=O)O)cs3)c2CC2CC2)cc1F [Compound 392] | < 100 |
| COc1ccc(-c2cc(O)n(-c3nc(C(=O)O)cs3)n2)cc1 [Compound 424] | > 57000 |
| O=C(O)c1csc(-n2nc(-c3ccc(F)cc3)cc2O)n1 [Compound 425] | > 57000 |

| Structure (SMILES) | IC50 [nM] |
| --- | --- |
| O=C(O)c1csc(-n2nc(-c3ccc(Cl)cc3)cc2C(F)(F)F)n1 [Compound 427] | 1000 to 57000 |
| Cc1oc(=O)oc1COC(=O)c1csc(-n2nc(-c3ccc(F)c(C#CC4CCCC4)c3)c(Cc3ccc(S(N)(=O)=O)c(F)c3)c2CC2CC2)n1 [Compound 441] | > 57000 |
| CCOC(=O)c1csc(-n2nc(-c3ccc(F)c(C#Cc4ccc(C)s4)c3)c(Cc3ccc(S(N)(=O)=O)c(F)c3)c2CC2CC2)n1 [Compound 447] | > 57000 |
| CC(C)(C)/C=C/c1cc(-c2nn(-c3nc(C(=O)O)cs3)c(CC3CC3)c2Cc2ccc([S+](N)(=O)[O-])c(F)c2)ccc1F [Compound 448] | < 100 |
| Cc1ccc(C#Cc2cccc(-c3nn(-c4nc(C(=O)O)cs4)c(CC4CC4)c3Cc3ccc(S(N)(=O)=O)c(F)c3)c2)s1 [Compound 449] | < 100 |
| C/C=C(\C)c1cc(-c2nn(-c3nc(C(=O)O)cs3)c(CC3CC3)c2Cc2ccc(S(N)(=O)=O)c(F)c2)ccc1F [Compound 450] | < 100 |
| NS(=O)(=O)c1ccc(Cc2c(-c3cccc4ccccc34)nn(-c3nc(C(=O)O)cs3)c2O)cc1 [Compound 451] | 1000 to 57000 |
| NS(=O)(=O)c1ccc(Cc2c(-c3cccnc3)nn(-c3nc(C(=O)O)cs3)c2O)cc1 [Compound 453, 2-(5-hydroxy-3-(pyridin-3-yl)-4-(4-sulfamoylbenzyl)-1H-pyrazol-1-yl)thiazole-4-carboxylic acid] | 1000 to 57000 |
| NS(=O)(=O)c1ccc(Cc2c(-c3cccc4cc(F)ccc34)nn(-c3nc(C(=O)O)cs3)c2O)cc1 [Compound 454, 2-(3-(6-fluoronaphthalen-1-(57%)yl)-5-hydroxy-4-(4-sulfamoylbenzyl)-1H-pyrazol-1-yl)thiazole-4-carboxylic acid] | 1000 to 57000 |
| COc1c(Cc2ccc(S(N)(=O)=O)cc2)c(-c2ccc(F)c(F)c2)nn1-c1nc(C(=O)O)cs1 [Compound 455, 2-(3-(3,4-difluorophenyl)-5-methoxy-4-(4-sulfamoylbenzyl)-1H-pyrazol-1-yl)thiazole-4-carboxylic acid] | 100 to 1000 |
| COc1cccc(-c2cc(-c3nn(-c4nc(C(=O)O)cs4)cc3Cc3ccc(S(N)(=O)=O)cc3)ccc2F)c1 [Compound 456, 2-(3-(6-fluoro-3′-methoxy-[1,1′-biphenyl]-3-yl)-4-(4-sulfamoylbenzyl)-1H-pyrazol-1-yl)thiazole-4-carboxylic acid] | < 100 |
| NS(=O)(=O)c1ccc(Cc2cn(-c3nc(C(=O)O)cs3)nc2-c2ccc(F)c(-c3cccc(Cl)c3)c2)cc1 [Compound 457, 2-(3-(3′-chloro-6-fluoro-[1,1′-biphenyl]-3-yl)-4-(4-sulfamoylbenzyl)-1H-pyrazol-1-yl)thiazole-4-carboxylic acid] | < 100 |
| CC(C)Oc1cccc(-c2nn(-c3nc(C(=O)O)cs3)cc2Cc2ccc(S(N)(=O)=O)cc2)c1 [Compound 459, 2-(3-(3-isopropoxyphenyl)-4-(4-sulfamoylbenzyl)-1H-pyrazol-1-yl)thiazole-4-carboxylic acid] | < 100 |
| NS(=O)(=O)c1ccc(Cc2cn(-c3nc(C(=O)O)cs3)nc2-c2cccc(OC3CCCC3)c2)cc1 [Compound 460, 2-(3-(3-(cyclopentyloxy)phenyl)-4-(4-sulfamoylbenzyl)-1H-pyrazol-1-yl)thiazole-4-carboxylic acid] | < 100 |
| NS(=O)(=O)c1ccc(Cc2cn(-c3nc(C(=O)O)cs3)nc2-c2cccc(OCC3CCOC3)c2)cc1 (centres unmarked) [Compound 461, 2-(4-(4-sulfamoylbenzyl)-3-(3-((tetrahydrofuran-3-yl)methoxy)phenyl)-1H-pyrazol-1-yl)thiazole-4-carboxylic acid] | < 100 |
| COc1cccc(COc2cccc(-c3nn(-c4nc(C(=O)O)cs4)cc3Cc3ccc(S(N)(=O)=O)cc3)c2)c1 [Compound 462, 2-(3-(3-((3-methoxybenzyl)oxy)phenyl)-4-(4-sulfamoylbenzyl)-1H-pyrazol-1-yl)thiazole-4-carboxylic acid] | < 100 |
| NS(=O)(=O)c1ccc(Cc2cn(-c3nc(C(=O)O)cs3)nc2-c2cccc(OCC3CCCO3)c2)cc1 (centres unmarked) [Compound 463, 2-(4-(4-sulfamoylbenzyl)-3-(3-((tetrahydrofuran-2-yl)methoxy)phenyl)-1H-pyrazol-1-yl)thiazole-4-carboxylic acid] | < 100 |
| NS(=O)(=O)c1ccc(Cc2cn(-c3nc(C(=O)O)cs3)nc2-c2cccc(Oc3ccccc3)c2)cc1 [Compound 464, 2-(3-(3-phenoxyphenyl)-4-(4-sulfamoylbenzyl)-1H-pyrazol-1-yl)thiazole-4-carboxylic acid] | < 100 |
| NS(=O)(=O)c1ccc(Cc2cnn(-c3nc(C(=O)O)cs3)c2-c2ccc3ccccc3c2)cc1 [Compound 474, 2-(5-(naphthalen-2-yl)-4-(4-sulfamoylbenzyl)-1H-pyrazol-1-yl)thiazole-4-carboxylic acid] | < 100 |
| NS(=O)(=O)c1ccc(Cc2cnn(-c3nc(C(=O)O)cs3)c2-c2cccnc2)cc1 [Compound 475, 2-(5-(pyridin-3-yl)-4-(4-sulfamoylbenzyl)-1H-pyrazol-1-yl)thiazole-4-carboxylic acid] | 100 to 1000 |
| Cc1ccc(-c2cc(-c3nn(-c4nc(C(=O)O)cs4)cc3Cc3ccc(S(N)(=O)=O)cc3)ccc2F)cc1 [Compound 476, 2-(3-(6-fluoro-4′-methyl-[1,1′-biphenyl]-3-yl)-4-(4-sulfamoylbenzyl)-1H-pyrazol-1-yl)thiazole-4-carboxylic acid] | < 100 |
| NS(=O)(=O)c1ccc(Cc2c(-c3ccc(F)c(-c4ccc(F)cc4)c3)nn(-c3nc(C(=O)O)cs3)c2C2CC2)cc1 [Compound 482, 2-(5-cyclopropyl-3-(4′,6-difluoro-[1,1′-biphenyl]-3-yl)-4-(4-sulfamoylbenzyl)-1H-pyrazol-1-yl)thiazole-4-carboxylic acid] | < 100 |
| COc1cccc(-c2cc(-c3nn(-c4nc(C(=O)O)cs4)c(C4CC4)c3Cc3ccc(S(N)(=O)=O)cc3)ccc2F)c1 [Compound 483, 2-(5-cyclopropyl-3-(6-fluoro-3′-methoxy-[1,1′-biphenyl]-3-yl)-4-(4-sulfamoylbenzyl)-1H-pyrazol-1-yl)thiazole-4-carboxylic acid] | < 100 |
